Results: US7696362B2, “Derivatives of artemisinin, and their uses in the treatment of malaria” (Centre National de la Recherche Scientifique, priority 2001, dated 2010)

Experiments:
[1] = Solubility in water; format: physicochemical; settings: hydrochloride
[2] = system: Plasmodium berghei; assay: Peters test on mice infected by Plasmodium berghei; format: in vivo; settings: after 20 days; daily dose of 50 mg/Kg for 4 days
[3] = system: resistant (W2) strains of P. falciparum; assay: IC50 vis-à-vis resistant (W2) strains of P. falciparum; format: cell-based; settings: Plasmodium falciparum
[4] = system: sensitive strains of P. falciparum; assay: IC50 vis-à-vis sensitive strains of P. falciparum; format: cell-based; settings: Plasmodium falciparum

Row | SMILES | solubility [1] [mg/mL] | survival of mice in the Peters test [2] | IC50 [3] [nM] | IC50 [4] [nM]
1 | C[C@@H]1CC[C@H]2C(CN3CCN(CCO)CC3)=C(C(F)(F)F)O[C@@H]3OC4(C)CC[C@@H]1[C@]32OO4 [drawing 28] | > 50 |  |  | 
2 | C[C@@H]1CC[C@H]2C(CN3CCOCC3)=C(C(F)(F)F)O[C@@H]3OC4(C)CC[C@@H]1[C@]32OO4 | > 20 |  |  | 
3 | C[C@@H]1CC[C@H]2C(CN3CCN(CCO)CC3)=C(C(F)(F)F)O[C@@H]3OC4(C)CC[C@@H]1[C@]32OO4 |  | all the mice survive | 3 | 17
